Drawing on the supplement of paper PMC10307832, this text covers relative viability for 5 cell lines.

Assay in all cases: relative viability (nuclei count vs DMSO), 5 days (fraction); higher = more cells survive
Compound in assay [1]: CC1=NC=CC(=C1)C2=CC=C(C=C2)CC(=O)NC3=CC=C(C=C3)C4=CN=CC=C4 [Wnt-C59]
The procedure, abridged: (§1)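 Lung cancer cell lines were seeded into 1536-well plates, kept overnight at 37 °C and pinned with five library-drug doses (not always all listed) spaced by √10. After 5 days, nuclei were Hoechst-stained, imaged at 4× and counted with MetaXpress. Viability is treated-well nuclei over vehicle-well nuclei, taken as a median across plates. Plates needed control CV below 25% and at least one doubling.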

Compound in assay [2]: CS(=O)(=O)CCNCc1ccc(-c2ccc3ncnc(Nc4ccc(OCc5cccc(F)c5)c(Cl)c4)c3c2)o1 [Lapatinib]
The procedure, abridged:
as §1

Compound in assay [3]: CC1=NC=CC(=C1)C2=CC=C(C=C2)CC(=O)NC3=CC=C(C=C3)C4=CN=CC=C4 [Wnt-C59] + Nc1ncn([C@H]2C[C@H](O)[C@@H](CO)O2)c(=O)n1 [Decitabine] (partner 2 µM)
The procedure, abridged: (§2)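 Medians of duplicate plates are given as relative viability. That measure is the nuclei count in treated wells divided by the count in vehicle wells. Counts were taken on 4× images of lung cancer cell lines in 1536-well plates, 5 days after pin-tool dosing the day after seeding with one drug alone or a fixed anchor-drug dose plus five library-drug doses (not always all listed) in √10 steps.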

Compound in assay [4]: CC1=NC=CC(=C1)C2=CC=C(C=C2)CC(=O)NC3=CC=C(C=C3)C4=CN=CC=C4 [Wnt-C59] + CC1(C)CCC(c2ccc(Cl)cc2)=C(CN2CCN(c3ccc(C(=O)NS(=O)(=O)c4ccc(N[C@H](CCN5CCOCC5)CSc5ccccc5)c(S(=O)(=O)C(F)(F)F)c4)cc3)CC2)C1 [Navitoclax] (partner 0.5 µM)
The procedure, abridged: as §2

Turning to NCI-H647, the relative viability was 0.914 in assay [1] (0.001 µM); 1 in assay [1] (0.01 µM); 0.934 in assay [1] (0.03162 µM); 0.946 in assay [1] (0.1 µM); 0.776 in assay [2] (0.02 µM); 0.897 in assay [2] (0.06325 µM). Moreover, the relative viability in assay [2] (0.2 µM) is 0.767; in assay [2] (0.6325 µM), 1.02; in assay [2] (2 µM), 0.806; in assay [2] (2 µM, anchor plate) it was 1.06; in assay [3] (first compound 0.001 µM), 0.379; in assay [3] (first compound 0.01 µM), 0.456. The relative viability in assay [3] (first compound 0.03162 µM) was 0.393; in assay [3] (first compound 0.1 µM), 0.288; in assay [4] (first compound 0.001 µM), 1.16; in assay [4] (first compound 0.01 µM) it was 0.972; in assay [4] (first compound 0.03162 µM), 1.12; in assay [4] (first compound 0.1 µM) it was 0.967.
As to NCI-H1395, the relative viability in assay [1] (0.001 µM) was 0.995; in assay [1] (0.01 µM) it was 0.873; in assay [1] (0.03162 µM) it was 0.952; in assay [1] (0.1 µM), 1.03; in assay [2] (0.06325 µM), 0.896; in assay [2] (0.2 µM) it was 1.02. Also, the relative viability in assay [2] (0.6325 µM) stood at 0.919; in assay [2] (2 µM), 0.742; in assay [2] (2 µM, anchor plate) it was 1.05; in assay [3] (first compound 0.001 µM), 0.743; in assay [3] (first compound 0.01 µM) it was 0.76; in assay [3] (first compound 0.03162 µM), 0.764. Also, the relative viability in assay [3] (first compound 0.1 µM) stood at 0.704; in assay [4] (first compound 0.001 µM), 1.24; in assay [4] (first compound 0.01 µM), 1.1; in assay [4] (first compound 0.03162 µM) it was 1.08; in assay [4] (first compound 0.1 µM) it was 1.32.
On to COR-L 105, for which the relative viability in assay [1] (0.001 µM) was 0.992; in assay [1] (0.01 µM), 0.948; in assay [1] (0.03162 µM), 0.94; in assay [1] (0.1 µM), 0.921; in assay [2] (0.02 µM), 0.828; in assay [2] (0.06325 µM) it was 0.8. The relative viability in assay [2] (0.2 µM) was found to be 0.857; in assay [2] (0.6325 µM), 0.598; in assay [2] (2 µM), 0.381; in assay [2] (2 µM, anchor plate) it was 0.367; in assay [3] (first compound 0.001 µM) it was 0.613; in assay [3] (first compound 0.01 µM) it was 0.618. Further, the relative viability in assay [3] (first compound 0.03162 µM) was found to be 0.663; in assay [3] (first compound 0.1 µM), 0.586; in assay [4] (first compound 0.001 µM), 0.905; in assay [4] (first compound 0.01 µM) it was 0.733; in assay [4] (first compound 0.03162 µM) it was 0.878; in assay [4] (first compound 0.1 µM), 1.02.
With NCI-H1651, the relative viability in assay [1] (0.001 µM) is 0.985; in assay [1] (0.01 µM), 0.998; in assay [1] (0.03162 µM), 0.997; in assay [1] (0.1 µM) it was 1; in assay [2] (0.02 µM), 0.942; in assay [2] (0.06325 µM), 0.811. Moreover, the relative viability worked out at 0.994 in assay [2] (0.2 µM); 0.926 in assay [2] (0.6325 µM); 0.989 in assay [2] (2 µM); 0.827 in assay [2] (2 µM, anchor plate); 0.671 in assay [3] (first compound 0.001 µM); 0.675 in assay [3] (first compound 0.01 µM). In addition, the relative viability in assay [3] (first compound 0.03162 µM) was 0.613; in assay [3] (first compound 0.1 µM) it was 0.597; in assay [4] (first compound 0.001 µM) it was 1.07; in assay [4] (first compound 0.01 µM), 1.02; in assay [4] (first compound 0.03162 µM), 1.11; in assay [4] (first compound 0.1 µM), 0.955.
In the case of PC-14, the relative viability in assay [1] (0.001 µM) is 1.09; in assay [1] (0.01 µM) it was 1.1; in assay [1] (0.03162 µM) it was 1; in assay [1] (0.1 µM), 1; in assay [2] (0.02 µM), 0.914; in assay [2] (0.06325 µM), 0.954. In addition, the relative viability was determined as 0.965 in assay [2] (0.2 µM); 0.958 in assay [2] (0.6325 µM); 0.644 in assay [2] (2 µM); 0.343 in assay [2] (2 µM, anchor plate); 0.246 in assay [3] (first compound 0.001 µM); 0.283 in assay [3] (first compound 0.01 µM). Further, the relative viability in assay [3] (first compound 0.03162 µM) amounted to 0.223; in assay [3] (first compound 0.1 µM), 0.243; in assay [4] (first compound 0.001 µM) it was 1; in assay [4] (first compound 0.01 µM) it was 1.15; in assay [4] (first compound 0.03162 µM), 1.06; in assay [4] (first compound 0.1 µM) it was 1.02.
